Measurements: the Kinase Knowledgebase extract (Sharma et al. 2016)

Biological target: ROCK2 (human) (UniProt O75116)
Assay: Assessment of ROCK2 Kinase Activity

Sequence of ROCK2 (human) (O75116 whole entry, looked up): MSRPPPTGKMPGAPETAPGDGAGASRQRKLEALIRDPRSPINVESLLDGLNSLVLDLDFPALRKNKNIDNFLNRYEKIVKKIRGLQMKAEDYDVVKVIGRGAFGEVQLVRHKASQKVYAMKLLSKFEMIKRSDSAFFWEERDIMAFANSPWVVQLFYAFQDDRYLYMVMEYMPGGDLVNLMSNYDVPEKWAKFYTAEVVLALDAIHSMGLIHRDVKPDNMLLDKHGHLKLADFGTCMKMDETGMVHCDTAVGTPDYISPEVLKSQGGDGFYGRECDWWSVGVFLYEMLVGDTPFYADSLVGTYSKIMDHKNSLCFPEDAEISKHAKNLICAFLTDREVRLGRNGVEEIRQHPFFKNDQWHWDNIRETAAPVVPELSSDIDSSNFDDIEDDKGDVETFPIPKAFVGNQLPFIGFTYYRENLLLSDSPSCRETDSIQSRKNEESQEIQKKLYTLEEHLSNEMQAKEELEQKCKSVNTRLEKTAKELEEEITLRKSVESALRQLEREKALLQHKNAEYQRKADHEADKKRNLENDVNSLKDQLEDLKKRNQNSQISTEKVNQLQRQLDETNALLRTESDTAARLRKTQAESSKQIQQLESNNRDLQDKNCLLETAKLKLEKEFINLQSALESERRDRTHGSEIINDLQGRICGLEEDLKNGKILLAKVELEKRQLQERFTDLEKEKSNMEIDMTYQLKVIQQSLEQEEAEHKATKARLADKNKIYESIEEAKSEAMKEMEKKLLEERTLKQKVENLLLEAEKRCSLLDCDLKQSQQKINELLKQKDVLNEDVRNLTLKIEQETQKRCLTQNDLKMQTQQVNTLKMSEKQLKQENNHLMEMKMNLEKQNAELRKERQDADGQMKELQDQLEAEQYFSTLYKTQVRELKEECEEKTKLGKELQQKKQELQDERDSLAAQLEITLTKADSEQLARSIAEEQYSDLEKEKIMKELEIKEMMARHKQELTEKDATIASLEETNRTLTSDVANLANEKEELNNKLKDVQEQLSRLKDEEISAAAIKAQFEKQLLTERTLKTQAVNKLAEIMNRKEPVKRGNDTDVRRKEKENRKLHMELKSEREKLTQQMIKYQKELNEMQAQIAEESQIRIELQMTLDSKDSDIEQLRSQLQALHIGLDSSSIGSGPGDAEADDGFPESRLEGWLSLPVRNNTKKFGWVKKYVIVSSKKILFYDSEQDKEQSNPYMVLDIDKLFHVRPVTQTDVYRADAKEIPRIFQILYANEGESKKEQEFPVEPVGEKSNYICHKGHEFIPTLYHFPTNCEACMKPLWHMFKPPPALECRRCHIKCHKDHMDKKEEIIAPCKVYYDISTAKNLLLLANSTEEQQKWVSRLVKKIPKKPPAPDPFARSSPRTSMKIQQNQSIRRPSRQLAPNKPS

SMILES | IC50
O=c1[nH]ccc2cc(N[C@H]3CCN(Cc4cccc(Cl)c4F)C3)ccc12 | ≤ 1 µM
Cc1ccc(CN2CC[C@H](Nc3ccc4c(=O)[nH]ccc4c3)C2)cc1 | ≤ 1 µM
O=c1[nH]ccc2cc(NC3CN(Cc4ccccc4Cl)C3)ccc12 | ≤ 1 µM
Brc1cc2cnccc2cc1SC1CCCNCC1 (stereo not given) | ≤ 1 µM
O=c1[nH]ccc2cc(N[C@@H]3CCCN(Cc4ccc5ccccc5c4)C3)ccc12 | ≤ 1 µM
O=c1[nH]ccc2cc(SC3CCNCC3)c(Cl)cc12 | ≤ 1 µM
O=c1[nH]ccc2cc(N[C@@H]3CCCN(Cc4ccccc4)C3)ccc12 | ≤ 1 µM
O=c1[nH]ccc2cc(S(=O)(=O)C3CCNCC3)c(Cl)cc12 | ≤ 1 µM

Now from value to molecule:

IC50 | SMILES
≤ 1 µM | O=c1[nH]ccc2cc(N[C@H]3CCN(CC4CC4)C3)ccc12
≤ 1 µM | CCCc1cc2cnccc2cc1SC1CCNCC1
≤ 1 µM | O=c1[nH]ccc2cc(NC3CN(Cc4cccc(Cl)c4F)C3)ccc12
≤ 1 µM | CC(C)CCN1CCC[C@@H](Nc2ccc3c(=O)[nH]ccc3c2)C1
≤ 1 µM | CCCCN1CCC[C@@H](Nc2ccc3c(=O)[nH]ccc3c2)C1
≤ 1 µM | O=c1[nH]ccc2cc(N[C@H]3CCN(Cc4ccc5ccccc5c4)C3)ccc12
≤ 1 µM | Clc1cc2cnccc2cc1SC1CCCNC1 (stereo not given)
